From patent US9145405B2, “Oxadiazole compound and preparation method thereof, pharmaceutical composition and use thereof” (SHANGHAI JIAO TONG UNIVERSITY, priority 2011, dated 2015)
In brackets after ≈: the same amount, converted by molar mass. Read-outs that look alike come from different tables or passages of the source.

Experiments:
Cox_B3 virus = test: Anti-Cox_B3 test: inhibition of cytopathic effect (CPE) in infected Vero cells, Reed-Muench; assay type: cell-based; conditions: for IC50: read-out: IC50 (half-inhibitory concentration for viruses)
From the text: The present examples verifies experimental results of anti-Cox_B3 of the compounds 1-137of the present invention, Pleconaril, 3-[3,5-dimethyl-4-[5-(3-methy-1,2-oxazolyl)propoxy]phenyl]-5-(trifluonomethyl) -1,2,4-oxadiazole is used as positive control.

Vero cells = test: Toxicity (half toxic concentration) in the anti-Cox_B3 test on Vero cells; assay type: cell-based
[1] = Cox_B3 virus in Vero cells, CPE, Reed-Muench method

Compound | IC50 (half-inhibitory concentration for viruses) (Cox_B3 virus; [1]) | TC50 (half of the toxic concentration) (Vero cells; Vero cells, Cox_B3) | TC50 (half of the toxic concentration) (Vero cells) | IC50 (Cox_B3 virus; [1]) | IC50 (Cox_B3 virus; Vero)
5-[2,6-dimethyl-4-[(5-(trifluoromethyl)-1,2,4-oxadiazole-3-yl)phenoxyl]ethoxyl]pyridine-2-oxy-ethylketoxime [Compound 45] | 0.10 µg/mL | 32.28 µg/mL | – | – | –
6-[2,6-dimethyl-4-[(5-(trifluoromethyl)-1,2,4-oxadiazole-3-yl)phenoxyl]ethoxyl]-3-cyanopyridine [Compound 104] | 0.082 µg/mL | – | 37.56 µg/mL | – | –
Cc1cc(-c2noc(C(F)(F)F)n2)cc(C)c1OCCSc1nccc(C(F)(F)F)n1 [Compound 34, 2-[2-[2,6-dimethyl-4-[5-(trifluoromethyl)-1,2,4-oxadiazole-3-yl]phenoxyl]ethylthio]-4-(trifluoromethyl) pyrimidine] | – | 33.28 µg/mL | – | 0.11 µg/mL (≈ 0.237 µM) | –
Cc1cc(-c2noc(C(F)(F)F)n2)cc(C)c1OCCOc1ccc(-c2noc(C(F)(F)F)n2)cc1F [Compound 123] | 0.043 µg/mL | – | 35.88 µg/mL | – | –
Cc1nnc(OCCOc2c(C)cc(-c3noc(C(F)(F)F)n3)cc2C)o1 [Compound 28, 3-[3,5-dimethyl-4-[2-[5-methyl-1,3,4-oxadiazole-2-oxy]ethoxyl]phenyl]-5-(trifluoromethyl)-1,2,4-oxadiazole] | – | 32.36 µg/mL | – | 0.11 µg/mL (≈ 0.286 µM) | –
Cc1nnc(SCCOc2c(C)cc(-c3noc(C(F)(F)F)n3)cc2C)[nH]1 [Compound 25, 3-[2-[2,6-dimethyl-4-[5-(trifluoromethyl)-1,2,4-oxadiazole-3-yl]phenoxyl]ethylthio]-5-methyl-4H-1,2,4-triazole] | – | 40.21 µg/mL | – | 0.09 µg/mL (≈ 0.225 µM) | –
Cc1cc(-c2noc(C(F)(F)F)n2)cc(C)c1OCCOc1nnc(C(F)(F)F)s1 [Compound 30, 3-[3,5-dimethyl-4-[2-[5-trifluoromethyl-1,3,4-thiadiazole-2-oxy]ethoxyl]phenyl]-5-(trifluoromethyl)-1,2,4-oxadiazole] | – | 34.39 µg/mL | – | 0.08 µg/mL (≈ 0.176 µM) | –
5-[2,6-dimethyl-4-[(5-(trifluoromethyl)-1,2,4-oxadiazole-3-yl)phenoxyl]ethoxyl]pyridine-2-oxy-ethylketoxime [Compound 99] | 0.083 µg/mL | 37.81 µg/mL | – | – | –
Cc1cc(-c2nc(C(F)(F)F)no2)cc(C)c1OCCOc1noc(C(F)(F)F)n1 [Compound 22] | 0.08 µg/mL | – | 40.78 µg/mL | – | –
3-[3,5-dimethyl-4-[2-(5-methyl-1H-imidazole-2-thio)ethoxyl]phenyl]-5-(trifluoromethyl)-1,2,4-oxadiazole [Compound 18] | 0.13 µg/mL | – | – | – | –
3-[3,5-dimethyl-4-[2-(3-methyl-1,2,4-thiadiazole-5-thio)ethoxyl]phenyl]-5-(trifluoromethyl)-1,2,4-oxadiazole [Compound 77] | 0.16 µg/mL | – | 38.58 µg/mL | – | –
4-[2,6-dimethyl-4-[(5-(trifluoromethyl)-1,2,4-oxadiazole-3-yl)phenoxyl]ethoxyl]-3-fluorobenzonitrile [Compound 38] | 0.048 µg/mL | – | 45.28 µg/mL | – | –
Cc1cc(-c2noc(C(F)(F)F)n2)cc(C)c1OCCOc1c(Cl)cccc1Cl [Compound 42, 3-[3,5-dimethyl-4-[(2,6-dichlorophenoxyl)ethoxyl]phenyl]-5-(trifluoromethyl)-1,2,4-oxadiazole] | – | 36.89 µg/mL | – | 0.033 µg/mL (≈ 0.0738 µM) | –
2-[2,6-dimethyl-4-[(5-(trifluoromethyl)-1,2,4-oxadiazole-3-yl)phenoxyl]ethoxyl]-3-fluoro-5-methylpyridine [Compound 47] | 0.082 µg/mL | – | 39.56 µg/mL | – | –
Cc1cc(-c2noc(C(F)(F)F)n2)cc(C)c1OCCCOc1ccc(-c2noc(C(F)(F)F)n2)cc1 [Compound 118, 3-[3,5-dimethyl-4-[3-[4-[5-(trifluoromethyl)-1,2,4-oxadiazole-3-yl]phenoxyl]propoxy]phenyl]-5-(trifluoromethyl)-1,2,4-oxadiazole] | – | 37.21 µg/mL | – | 0.048 µg/mL (≈ 0.0908 µM) | –
COC(=O)c1cnc(OCCOc2c(C)cc(-c3noc(C)n3)cc2C)c(F)c1 [Compound 103] | 0.07 µg/mL | – | 39.55 µg/mL | – | –

Compound | IC50 (half-inhibitory concentration for viruses) (Cox_B3 virus; [1]) | TC50 (half of the toxic concentration) (Vero cells; Vero cells, Cox_B3) | TC50 (half of the toxic concentration) (Vero cells) | IC50 (Cox_B3 virus; [1]) | IC50 (Cox_B3 virus; Vero)
Cc1nc(-c2ccc(OCCOc3c(C)cc(-c4noc(C(F)(F)F)n4)cc3C)cc2)no1 [Compound 111, 3-[3,5-dimethyl-4-[2-[4-(5-methyl-1,2,4-oxadiazole-3-yl)phenoxyl]ethoxyl]phenyl]-5-(trifluoromethyl)-1,2,4-oxadiazole] | – | 38.21 µg/mL | – | 0.051 µg/mL (≈ 0.111 µM) | –
COC(=O)c1cc(OCCCOc2c(C)cc(-c3noc(C(F)(F)F)n3)cc2C)no1 [Compound 7, 3-[3-[2,6-dimethyl-4-[5-(trifluoromethyl)-1,2,4-oxadiazole-3-yl]phenoxyl]propoxy]-isoxazole-5-carboxylate] | 0.24 µg/mL | – | 36.48 µg/mL | – | –
Cc1cc(-c2noc(C(F)(F)F)n2)cc(C)c1OCCOc1ccc(-c2noc(C(F)(F)F)n2)cc1 [Compound 112, 3-[3,5-dimethyl-4-[2-[4-[5-(trifluoromethyl)-1,2,4-oxadiazole-3-yl]phenoxyl]ethoxyl]phenyl]-5-(trifluoromethyl)-1,2,4-oxadiazole] | – | 34.98 µg/mL | – | 0.032 µg/mL (≈ 0.0622 µM) | –
6-[2,6-dimethyl-4-[(5-(trifluoromethyl)-1,2,4-oxadiazole-3-yl)phenoxyl]ethoxyl]pyridine-2-oxy-ethylketoxime [Compound 98] | 0.093 µg/mL | – | 42.89 µg/mL | – | –
Cc1cc(-c2noc(C(F)(F)F)n2)cc(C)c1OCCCOC1CCC(C)C(C)C1 (stereo not shown) [Compound 129, 3-[4-[3-[3,4-dimethylcyclohexyloxy]propoxy]-3,5-dimethylphenyl]-5-(trifluoromethyl)-1,2,4-oxadiazole] | – | 35.46 µg/mL | – | – | 0.025 µg/mL (≈ 0.0586 µM)
Cc1cc(-c2noc(C(F)(F)F)n2)cc(C)c1OCCOC(C)(C)C [Compound 90, 3-[3,5-dimethyl-4-[(2-tert-butoxy)ethoxyl]phenyl]-5-(trifluoromethyl)-1,2,4-oxadiazole] | 0.15 µg/mL | – | 38.28 µg/mL | – | –
6-[2,6-dimethyl-4-[(5-(trifluoromethyl)-1,2,4-oxadiazole-3-yl)phenoxyl]ethoxyl]-5-fluoro-3-cyanopyridine [Compound 100] | 0.069 µg/mL | – | 38.63 µg/mL | – | –
Cc1nnc(OCCOc2c(C)cc(-c3noc(C(F)(F)F)n3)cc2C)[nH]1 [Compound 24, 3-[2-[2,6-dimethyl-4-[5-(trifluoromethyl)-1,2,4-oxadiazole-3-yl]phenoxyl]ethoxyl]-5-methyl-4H-1,2,4-triazole] | – | 42.23 µg/mL | – | 0.03 µg/mL (≈ 0.0783 µM) | –
Cc1cc(-c2noc(C(F)(F)F)n2)cc(C)c1OCCOc1ncc(-c2noc(C(F)(F)F)n2)cc1F [Compound 116, 2-[2-[2,6-dimethyl-4-[5-(trifluoromethyl)-1,2,4-oxadiazole-3-yl]phenoxyl]ethoxyl]-3-fluoro-5-[5-(trifluoromethyl)-1,2,4-oxadiazole-3-yl]-pyridine] | – | 39.21 µg/mL | – | 0.034 µg/mL (≈ 0.0637 µM) | –
4-[2,6-dimethyl-4-[(5-(trifluoromethyl)-1,2,4-oxadiazole-3-yl)phenoxyl]ethoxyl]-2-hydroxyl-5-fluoropyrimidine [Compound 53] | 0.056 µg/mL | – | 46.89 µg/mL | – | –
Cc1cc(-c2noc(C(F)(F)F)n2)cc(C)c1OCCOc1cc(C(=O)O)nn1C [Compound 17, 5-[2-[2,6-dimethyl-4-[5-(trifluoromethyl)-1,2,4-oxadiazole-3-yl]phenoxyl]ethoxyl]-1-methyl-1H-pyrazole-3-carboxylic acid] | – | 44.39 µg/mL | – | 0.07 µg/mL (≈ 0.164 µM) | –
Cc1nc(-c2ccc(OCCCOc3c(C)cc(-c4noc(C(F)(F)F)n4)cc3C)cc2)no1 [Compound 117, 3-[3,5-dimethyl-4-[3-[4-(5-methyl-1,2,4-oxadiazole-3-yl]phenoxyl]propoxy]phenyl]-5-(trifluoromethyl)-1,2,4-oxadiazole] | – | 33.28 µg/mL | – | 0.033 µg/mL (≈ 0.0696 µM) | –
Cc1cc(OCCCOc2c(C)cc(-c3noc(C(F)(F)F)n3)cc2C)on1 [Compound 8, 3-[3,5-dimethyl-4-[3-(3-methylisoxazole-5-oxy)propoxy]phenyl]-5-(trifluoromethyl)-1,2,4-oxadiazole] | – | 52.38 µg/mL | – | 0.021 µg/mL (≈ 0.0528 µM) | –
Cc1cc(OCCOc2c(C)cc(-c3noc(C(F)(F)F)n3)cc2C)ns1 [Compound 10, 3-[3,5-dimethyl-4-[2-(5-methylisothiazole-3-oxy)ethoxyl]phenyl]-5-(trifluoromethyl)-1,2,4-oxadiazole] | – | 46.47 µg/mL | – | 0.042 µg/mL (≈ 0.105 µM) | –
Cc1cc(Cl)c(OCCCOc2c(C)cc(-c3noc(C(F)(F)F)n3)cc2C)c(Cl)c1 [Compound 130, 3-[4-[3-[2,6-dichloro-4-methylphenoxyl]propoxy]-3,5-dimethylphenyl]-5-(trifluoromethyl)-1,2,4-oxadiazole] | – | – | – | – | 0.031 µg/mL (≈ 0.0652 µM)
Cc1cc(-c2noc(C(F)(F)F)n2)cc(C)c1OCCCOc1cc(C(F)(F)F)no1 [Compound 9, 3-[3,5-dimethyl-4-[3-(3-trifluoromethylisoxazole-5-oxy)propoxy]phenyl]-5-(trifluoromethyl)-1,2,4-oxadiazole] | – | – | – | 0.031 µg/mL (≈ 0.0687 µM) | –
